Read-outs that look alike come from different tables or passages of the source.
How the values were obtained:
[1] = target: T1, cDNA-expressed human hepatic CYP3A4 (Homo sapiens, UniProt P08684); experiment: P450 CYP3A4 inhibitory activity screening (BFC substrate, fluorescence); assay type: biochemical
T1 construct: purchased BD Gentest 456202
Procedure: P450 CYP3A4 Inhibitory Activity Screening
Assay was conducted in a 200 μL volume in 96-well microtiter plates using cDNA-expressed human hepatic CYP3A4 (supersome, BD Gentest™ #456202). 7-Benzyloxy-4-trifluoromethyl-coumarin (BFC) was used as a substrate for CYP3A4. Test articles and substrate BFC were dissolved in 100% acetonitrile. The final volume of acetonitrile in the incubation mixture was less than 1% (volume/volume). Potassium phosphate buffer (pH 7.4, final concentration 0.1 M), MgCl2 (final concentration 8.3 mM), EDTA (final concentration 1.67 mM), a test article stock solution, a CYP3A4 supersome and NADPH (final concentration 0.25 mM) were added to each well. The reaction was initiated by the addition of substrate (BFC, final concentration 30 µM) after a 10 min pre-incubation at 37° C. After 10 min incubation at 37° C., the reaction was terminated by the addition of 75 μL of acetonitrile:0.5 M Tris-base=4:1 (volume/volume). Thereafter, Fluorescent signal was measured using a fluorometer. BFC metabolite, 7-hydroxy-4-trifluoromethyl-coumarin, was measured using an excitation wavelength of 409 nm and an emission wavelength of 530 nm.

MV-4-11 cells = experiment: Cell growth inhibition assay on AML cancer cells (CellTiter 96); assay type: cell-based; settings: Homo sapiens, MV4-11
Procedure: The lower GI50 value means the higher inhibition activity.
Cell Growth Inhibition Activity on AML Cancer Cells (Cell Growth Inhibition Assay)
Cell growth Inhibition assay was performed to investigate the rate of inhibition of cell proliferation by the test compounds. MV-4-11 (human, Acute Myeloid Leukemia cell line) cells were cultured in Iscove's modified Dulbecco's medium (IMDM) including 10% fetal bovine serum (FBS), 1× penicillin/streptomycin (10,000 units/ml Penicillin, […] Streptomycin in 0.85% NaCl). MV-4-11 cells were harvested with IMDM medium and 5×10^4 cells/well were transferred to each well of 96 well culture plates (Nunc, #167008). The test compounds were treated with the serial dilution and duplicated for each concentration. For the serial dilution, the test compounds were repeatedly diluted with the same volume of media onto 96-well assay block (costar, #3956). After the dilution, each compound was added to each well. The background absorbance was also measured during the test compounds treatment by adding the IMDM media in replacement of test compound to the negative control plate. The plates were incubated for 3 days (72 hours) at 37° C. in the humidified incubator containing 5% CO2. On the last day, 20 μL of CellTiter 96 Aqueous One Solution (Promega #G3581) was added to the culture in each well and the plates were incubated for a few hours at 37° C. in the humidified incubator containing 5% CO2. After the incubation, the absorbance of each cell was measured at 490 nm using an EnVision (Perkinelmer, USA). The GI50 values were calculated using a Prism 3.0 program.

Wnt signaling = experiment: TopFlash reporter gene bioassay in SW480 cells; assay type: cell-based; settings: Homo sapiens, SW480, TopFlash reporter gene assay, inhibition of Wnt signaling; read-out: RGA, IC50 (μM) TopF
[2] = cell growth inhibition on AML cancer cells, MV-4-11, read-out: MV-4-11, GI50

T1 sequence (P08684 whole entry): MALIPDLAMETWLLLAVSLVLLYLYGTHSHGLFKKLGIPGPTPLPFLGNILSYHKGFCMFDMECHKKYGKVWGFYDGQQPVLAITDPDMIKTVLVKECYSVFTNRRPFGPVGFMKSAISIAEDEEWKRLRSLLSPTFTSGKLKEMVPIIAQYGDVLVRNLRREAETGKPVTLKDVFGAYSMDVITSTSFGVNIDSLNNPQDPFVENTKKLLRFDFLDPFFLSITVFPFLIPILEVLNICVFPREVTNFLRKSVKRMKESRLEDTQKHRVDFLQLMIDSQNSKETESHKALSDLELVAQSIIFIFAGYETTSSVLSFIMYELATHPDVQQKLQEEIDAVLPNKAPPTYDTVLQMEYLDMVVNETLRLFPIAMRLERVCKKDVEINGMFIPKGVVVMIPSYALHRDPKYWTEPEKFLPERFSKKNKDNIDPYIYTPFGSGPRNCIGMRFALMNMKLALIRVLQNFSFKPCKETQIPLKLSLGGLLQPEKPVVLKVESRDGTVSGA

GI50 (MV-4-11 cells; [2])	Compound	further results
–	C=CCN1CC(=O)N2[C@@H](Cc3ccc(O)cc3)C(=O)N(Cc3cccc(C(=O)NCCOC)c3)C[C@@H]2N1C(=O)NCc1ccccc1 [Compound B]	IC50 ([1]; human CYP3A4 supersome, substrate BFC, 10 min incubation at 37° C., read-out: IC50 values of Compounds against CYP3A4 activity): 34.6 µM; GI50 (MV-4-11 cells; MV-4-11 cells, 72 hours, read-out: GI50, cell growth inhibition of MV-4-11 AML cancer cells): 188 nM
50 nM	C=CCN1CC(=O)N2[C@@H](Cc3ccc(O)cc3)C(=O)N(Cc3cccc(NC(=O)OC)c3)C[C@@H]2N1C(=O)NCc1ccccc1 [compound 5]	IC50 (Wnt signaling): 0.16 ± 0.08 µM
180 nM	C=CCN1CC(=O)N2[C@@H](Cc3ccc(O)cc3)C(=O)N(Cc3cccc(C(=O)NCCOC)c3)C[C@@H]2N1C(=O)NCc1ccccc1 [compound 38]	IC50 ([1]; P450 CYP3A4 inhibitory activity screening, fluorescent assay, read-out: CYP3A4 inhibition, IC50 (μM) fluorescent assay): 34.6 µM
450 nM	C=CCN1CC(=O)N2[C@@H](Cc3ccc(O)cc3)C(=O)N(Cc3cccc(C(=O)NCCO)c3)C[C@@H]2N1C(=O)NCc1ccccc1 [compound 19]	–
820 nM	C=CCN1CC(=O)N2[C@@H](Cc3ccc(O)cc3)C(=O)N(Cc3cccc(C(=O)N(C)C)c3)C[C@@H]2N1C(=O)NCc1ccccc1 [compound 30]	–
640 nM	C=CCN1CC(=O)N2[C@@H](Cc3ccc(O)cc3)C(=O)N(Cc3cccc(C(=O)OCC)n3)C[C@@H]2N1C(=O)NCc1ccccc1 [compound 42]	–
160 nM	C=CCN1CC(=O)N2[C@@H](Cc3ccc(O)cc3)C(=O)N(Cc3ccccc3SC)C[C@@H]2N1C(=O)NCc1ccccc1 [compound 14]	–
180 nM	C=CCN1CC(=O)N2[C@@H](Cc3ccc(O)cc3)C(=O)N(Cc3csc4ccccc34)C[C@@H]2N1C(=O)NCc1ccccc1 [compound 3]	–

Compound	GI50 (MV-4-11 cells; [2])	further results
C=CCN1CC(=O)N2[C@@H](Cc3ccc(O)cc3)C(=O)N(Cc3cccc(OC)c3OC)C[C@@H]2N1C(=O)NCc1ccccc1 [compound 15]	2140 nM	–

— US8080657B2, “Compounds of reverse turn mimetics and the use thereof” (Choongwae Pharma Corporation, priority 2008, dated 2011)
